Here are results for ten molecules from ChEMBL document CHEMBL1201862, “PubChem BioAssay data set” (2004).

The source made the active and inactive calls.

Assay [1] deals with Delta-type opioid receptor (Homo sapiens, UniProt P41143). The assay can be described thus: Counterscreen for agonists of heterodimerization of the mu 1 (OPRM1) and delta 1 (OPRD1) opioid receptors: Luminescence-based cell-based high throughput dose response assay to identify agonists of OPRD1 homodimerization. [Related pubchem assays (depositor defined):AID504326, AID504355, AID504692, AID504904, AID504905]. In kind it is functional. (In general: A counterscreen serves to expose hits that act by an unwanted route or on another target.)

For assay [2], the target named is 5-hydroxytryptamine receptor 5A (Homo sapiens, UniProt P47898). The assay can be described thus: Counterscreen for agonists of OPRM1-OPRD1 heterodimerization: luminescence-based cell-based high throughput dose response assay to identify agonists of 5-hydroxytryptamine (serotonin) 5A receptor (HTR5A). [Related pubchem assays (depositor defined):AID504326, AID504355, AID504692, AID504904, AID504905]. In kind it is functional.

The target of a further assay is Mu-type opioid receptor (Homo sapiens, UniProt P35372). Briefly: Counterscreen for agonists of heterodimerization of the mu 1 (OPRM1) and delta 1 (OPRD1) opioid receptors: Luminescence-based cell-based high throughput dose response assay to identify agonists of OPRM1 homodimerization. Format: functional.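 Also: U2OS cells expressing OPRM1 and beta-arrestin as split beta-galactosidase partners.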
The subject of a further assay is Escherichia coli. Briefly: microbe, parasite or virus in culture.
The target in assay [3] is T1, Long-chain-fatty-acid--AMP ligase FadD28 (Mycobacterium tuberculosis, UniProt P9WQ59).
T1 sequence (P9WQ59 whole entry): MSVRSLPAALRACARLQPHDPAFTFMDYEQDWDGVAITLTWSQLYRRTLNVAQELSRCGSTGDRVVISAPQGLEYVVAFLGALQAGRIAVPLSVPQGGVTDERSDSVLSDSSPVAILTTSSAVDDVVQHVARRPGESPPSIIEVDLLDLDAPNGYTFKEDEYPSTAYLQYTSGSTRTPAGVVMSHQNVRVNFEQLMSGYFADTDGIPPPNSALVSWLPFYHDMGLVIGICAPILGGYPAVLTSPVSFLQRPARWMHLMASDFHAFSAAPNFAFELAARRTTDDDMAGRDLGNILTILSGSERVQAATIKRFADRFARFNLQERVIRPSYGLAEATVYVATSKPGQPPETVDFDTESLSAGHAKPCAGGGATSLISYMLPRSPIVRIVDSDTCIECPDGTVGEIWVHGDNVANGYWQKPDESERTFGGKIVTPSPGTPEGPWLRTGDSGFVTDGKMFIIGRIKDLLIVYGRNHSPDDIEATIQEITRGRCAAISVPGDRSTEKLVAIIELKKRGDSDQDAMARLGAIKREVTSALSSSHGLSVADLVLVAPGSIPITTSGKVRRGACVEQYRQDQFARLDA
The assay can be described thus: Fluorescence polarization aasay to screen for inhibitors that compete for the binding of FadD28 to a bisubstrate Measured in Biochemical System Using Plate Reader - 2147-01_Inhibitor_Dose_CherryPick_Activity. In kind it is functional, Mycobacterium tuberculosis H37Rv. A general note: Polarisation of emitted light reports the rotation of a fluorescent probe.

The target in assay [4] is E3 ubiquitin-protein ligase Mdm2 (Homo sapiens, UniProt Q00987). The assay can be described thus: enhancers of MDM2-luciferase reporter signal, concentration-effect titration, project on inhibitors of MDM2 ubiquitin ligase, cellular assay, luminescent readout, 384-well plate format (AID 1394).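 Also: MDM2 E3 inhibitors raise luminescence so EC50 is for signal enhancement.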 In kind it is functional. A general note: Reporter assays use an easily measured gene product as a stand-in for the process of interest.

The target of assay [5] is T2, Lysine-specific demethylase 4C (Homo sapiens, UniProt Q9H3R0).
T2 sequence (Q9H3R0 whole entry): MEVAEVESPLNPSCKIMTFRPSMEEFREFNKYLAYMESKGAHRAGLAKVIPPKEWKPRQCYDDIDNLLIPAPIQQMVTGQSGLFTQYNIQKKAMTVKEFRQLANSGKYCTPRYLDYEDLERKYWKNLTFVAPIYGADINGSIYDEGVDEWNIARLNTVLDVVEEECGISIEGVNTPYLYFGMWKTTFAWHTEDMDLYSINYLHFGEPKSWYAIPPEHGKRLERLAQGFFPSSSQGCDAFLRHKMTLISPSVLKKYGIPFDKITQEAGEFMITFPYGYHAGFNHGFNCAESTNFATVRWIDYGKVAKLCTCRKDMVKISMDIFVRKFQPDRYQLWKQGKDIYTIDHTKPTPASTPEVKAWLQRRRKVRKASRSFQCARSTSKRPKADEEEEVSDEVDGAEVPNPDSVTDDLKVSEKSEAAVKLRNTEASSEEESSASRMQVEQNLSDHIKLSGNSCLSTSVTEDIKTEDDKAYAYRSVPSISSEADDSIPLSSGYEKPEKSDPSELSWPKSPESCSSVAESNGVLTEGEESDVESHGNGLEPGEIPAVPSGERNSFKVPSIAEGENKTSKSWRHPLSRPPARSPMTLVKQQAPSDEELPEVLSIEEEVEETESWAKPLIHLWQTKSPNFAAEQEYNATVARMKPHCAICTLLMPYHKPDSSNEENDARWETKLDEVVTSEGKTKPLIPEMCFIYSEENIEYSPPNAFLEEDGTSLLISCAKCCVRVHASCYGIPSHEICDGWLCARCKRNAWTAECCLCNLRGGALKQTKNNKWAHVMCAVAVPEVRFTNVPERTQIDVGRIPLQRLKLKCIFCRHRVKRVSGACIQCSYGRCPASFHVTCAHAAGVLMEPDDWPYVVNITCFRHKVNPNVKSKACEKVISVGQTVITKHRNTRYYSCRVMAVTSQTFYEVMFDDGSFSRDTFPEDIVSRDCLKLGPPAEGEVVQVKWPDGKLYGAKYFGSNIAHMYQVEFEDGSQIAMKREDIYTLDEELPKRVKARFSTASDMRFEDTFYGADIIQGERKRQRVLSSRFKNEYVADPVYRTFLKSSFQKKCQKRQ
The assay can be described thus: GASC-1 (JMJD2C) histone demethylase inhibitors, dose response, biochemical, DELFIA europium, cherry-picked samples (AID 488835). Format: functional.

The target of a further assay is Large T antigen (Simian virus 40, UniProt P03070). Format: functional, Betapolyomavirus macacae.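 Also: Confirmatory-stage PubChem screen for compounds that inhibit SV40 T antigen.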
In a further assay the test system is Vero. Briefly: cells. To be noted: Chlorocebus sabaeus. Format: functional.
The target of assay [6] is T3, Heat shock factor protein 1 (Mus musculus, UniProt P38532).
T3 sequence (P38532 whole entry): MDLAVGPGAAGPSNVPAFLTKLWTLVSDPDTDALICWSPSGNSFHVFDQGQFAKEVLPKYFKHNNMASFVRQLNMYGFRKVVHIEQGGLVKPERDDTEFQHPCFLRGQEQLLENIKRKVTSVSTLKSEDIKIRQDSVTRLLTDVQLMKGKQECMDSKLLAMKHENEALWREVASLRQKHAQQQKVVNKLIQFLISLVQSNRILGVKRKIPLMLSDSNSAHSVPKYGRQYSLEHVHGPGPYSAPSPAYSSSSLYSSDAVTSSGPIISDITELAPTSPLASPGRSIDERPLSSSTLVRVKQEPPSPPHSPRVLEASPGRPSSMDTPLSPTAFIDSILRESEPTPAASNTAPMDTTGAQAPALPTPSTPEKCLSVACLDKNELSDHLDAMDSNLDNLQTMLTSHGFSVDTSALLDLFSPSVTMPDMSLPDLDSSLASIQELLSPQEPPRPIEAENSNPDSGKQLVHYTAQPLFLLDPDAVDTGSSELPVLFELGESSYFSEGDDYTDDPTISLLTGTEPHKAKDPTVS
The assay can be described thus: HSF1 potentiators in luciferase reporter cells, confirmation, cell-based, NIH3T3, luminescence, dose retest (AID 435004).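 Also: stress induced by proteasome inhibitor MG132 added 30 min after compound; luciferase reporter driven by HSF1 response element in NIH3T3 cells; actives raise luminescence as potentiators of the MG132 stress response.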 Format: functional.

A short description of assay [7]: insulin promoter down-regulators in MIN6 cells, imaging, high-content screening, mouse beta cells (AID 1628). In kind it is functional.
Assay [8] can be described thus: cytotoxicity in MIN6 insulinoma cells, dose response, cytotoxicity control, cell-based, mouse insulinoma (AID 2122).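 Also: confirmatory high-throughput counterscreen run to flag cytotoxic compounds; mouse MIN-6 beta cells carrying an insulin promoter eGFP reporter.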 In kind it is functional.
For assay [9], the target named is T4, Short transient receptor potential channel 4 (Mus musculus, UniProt Q9QUQ5).
T4 sequence (Q9QUQ5 whole entry): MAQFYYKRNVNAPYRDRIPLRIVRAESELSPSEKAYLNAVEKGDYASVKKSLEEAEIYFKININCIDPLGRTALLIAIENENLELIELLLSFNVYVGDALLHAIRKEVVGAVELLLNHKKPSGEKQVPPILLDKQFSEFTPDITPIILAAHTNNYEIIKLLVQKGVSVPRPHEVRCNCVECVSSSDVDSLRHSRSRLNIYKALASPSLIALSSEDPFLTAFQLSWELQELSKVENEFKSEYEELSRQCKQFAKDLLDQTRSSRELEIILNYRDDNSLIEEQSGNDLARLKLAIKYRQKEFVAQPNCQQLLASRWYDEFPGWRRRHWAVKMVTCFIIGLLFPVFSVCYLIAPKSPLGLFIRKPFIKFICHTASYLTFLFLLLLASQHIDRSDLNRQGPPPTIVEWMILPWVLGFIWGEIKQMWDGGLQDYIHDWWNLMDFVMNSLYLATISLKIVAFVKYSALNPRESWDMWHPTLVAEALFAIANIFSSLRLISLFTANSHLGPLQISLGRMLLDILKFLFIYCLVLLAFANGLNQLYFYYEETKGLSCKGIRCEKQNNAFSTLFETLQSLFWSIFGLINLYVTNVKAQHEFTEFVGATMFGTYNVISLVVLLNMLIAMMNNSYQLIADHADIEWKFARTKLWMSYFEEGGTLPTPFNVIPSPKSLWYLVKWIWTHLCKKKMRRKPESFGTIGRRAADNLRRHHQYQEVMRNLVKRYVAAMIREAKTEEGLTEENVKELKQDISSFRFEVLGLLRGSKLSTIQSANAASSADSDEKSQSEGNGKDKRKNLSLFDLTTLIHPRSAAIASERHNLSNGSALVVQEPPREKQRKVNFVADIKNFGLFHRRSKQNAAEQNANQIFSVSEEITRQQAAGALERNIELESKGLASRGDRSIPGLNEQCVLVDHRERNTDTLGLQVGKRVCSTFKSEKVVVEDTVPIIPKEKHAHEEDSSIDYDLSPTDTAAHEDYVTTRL
Briefly: mouse TRPC4 channel inhibitors, dose response, cell-based, HEK293 TRPC4/mu-opioid, Fluo-4 calcium (AID 434942).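 Also: potency of inhibitors blocking the TRPC4 calcium response.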 In kind it is functional.

Assay [10] can be described thus: Shn3 3'UTR reporter inhibitors, dose response, cell-based, Clone20 osteoblasts, firefly luciferase, cherry-picked (AID 624132).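 Also: firefly luciferase luminescence from reporter carrying the Shn3 3'UTR in osteoblasts.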 Format: functional.
Assay [11] is described as follows: cells. In kind it is functional, cell-based.
The nature of assay [12]: control 3'UTR Renilla luciferase suppression, dose response, counter-screen for Shn3 inhibitor project, cell-based, Clone20-Shn3RL, cherry-picked (AID 624133). In kind it is functional.
The nature of assay [13]: HepG2 cell cytotoxicity, dose response, cytotoxicity control for Shn3 inhibitor project, CellTiter-Glo, cherry-picked (AID 624134). In kind it is functional, cell-based.
For the next assay, the system named is INS1. The assay can be described thus: beta cell apoptosis inhibitors, cytokine rescue, dose response, luminescence, retest (AID 449756).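 Also: cell death triggered by IL-1 beta plus TNF-alpha plus IFN-gamma mixture; protective hits raise ATP signal compared with cytokine alone wells.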 Format: functional, cell-based. The conditions noted are these: Rattus norvegicus.
The nature of assay [14]: cells. Format: functional, cell-based. The source holds these as a separate data set.

Sequence of 5-hydroxytryptamine receptor 5A (P47898 whole entry): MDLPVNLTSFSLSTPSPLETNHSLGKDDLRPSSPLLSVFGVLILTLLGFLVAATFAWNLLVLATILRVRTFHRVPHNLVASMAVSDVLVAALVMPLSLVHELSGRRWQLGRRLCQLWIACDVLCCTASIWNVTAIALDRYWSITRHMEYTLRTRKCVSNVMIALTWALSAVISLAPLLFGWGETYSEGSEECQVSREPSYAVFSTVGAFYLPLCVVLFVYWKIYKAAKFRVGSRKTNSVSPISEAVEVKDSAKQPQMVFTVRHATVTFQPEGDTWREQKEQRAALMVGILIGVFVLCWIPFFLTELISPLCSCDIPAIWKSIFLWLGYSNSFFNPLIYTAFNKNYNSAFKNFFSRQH
Sequence of Mu-type opioid receptor (P35372 whole entry): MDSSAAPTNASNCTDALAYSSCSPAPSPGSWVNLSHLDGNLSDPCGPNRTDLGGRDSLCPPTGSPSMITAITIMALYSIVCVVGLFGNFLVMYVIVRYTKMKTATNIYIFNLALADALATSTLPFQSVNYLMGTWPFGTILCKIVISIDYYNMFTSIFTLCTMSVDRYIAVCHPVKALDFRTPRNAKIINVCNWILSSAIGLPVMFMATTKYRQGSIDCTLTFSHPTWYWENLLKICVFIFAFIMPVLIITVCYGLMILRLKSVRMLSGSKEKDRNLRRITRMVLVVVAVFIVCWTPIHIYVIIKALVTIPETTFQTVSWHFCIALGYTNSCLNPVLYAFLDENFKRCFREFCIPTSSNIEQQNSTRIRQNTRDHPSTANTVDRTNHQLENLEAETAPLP
Sequence of Delta-type opioid receptor (P41143 whole entry): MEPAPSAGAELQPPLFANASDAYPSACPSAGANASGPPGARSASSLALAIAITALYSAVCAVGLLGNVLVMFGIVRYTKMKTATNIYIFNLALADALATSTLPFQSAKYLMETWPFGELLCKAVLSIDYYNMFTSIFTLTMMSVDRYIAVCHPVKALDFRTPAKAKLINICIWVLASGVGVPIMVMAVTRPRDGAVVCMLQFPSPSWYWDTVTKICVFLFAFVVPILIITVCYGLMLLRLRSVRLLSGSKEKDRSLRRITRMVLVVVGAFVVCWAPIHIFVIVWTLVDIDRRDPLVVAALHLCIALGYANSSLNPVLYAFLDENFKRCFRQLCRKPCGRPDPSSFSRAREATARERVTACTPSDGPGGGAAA
Sequence of Large T antigen (P03070 whole entry): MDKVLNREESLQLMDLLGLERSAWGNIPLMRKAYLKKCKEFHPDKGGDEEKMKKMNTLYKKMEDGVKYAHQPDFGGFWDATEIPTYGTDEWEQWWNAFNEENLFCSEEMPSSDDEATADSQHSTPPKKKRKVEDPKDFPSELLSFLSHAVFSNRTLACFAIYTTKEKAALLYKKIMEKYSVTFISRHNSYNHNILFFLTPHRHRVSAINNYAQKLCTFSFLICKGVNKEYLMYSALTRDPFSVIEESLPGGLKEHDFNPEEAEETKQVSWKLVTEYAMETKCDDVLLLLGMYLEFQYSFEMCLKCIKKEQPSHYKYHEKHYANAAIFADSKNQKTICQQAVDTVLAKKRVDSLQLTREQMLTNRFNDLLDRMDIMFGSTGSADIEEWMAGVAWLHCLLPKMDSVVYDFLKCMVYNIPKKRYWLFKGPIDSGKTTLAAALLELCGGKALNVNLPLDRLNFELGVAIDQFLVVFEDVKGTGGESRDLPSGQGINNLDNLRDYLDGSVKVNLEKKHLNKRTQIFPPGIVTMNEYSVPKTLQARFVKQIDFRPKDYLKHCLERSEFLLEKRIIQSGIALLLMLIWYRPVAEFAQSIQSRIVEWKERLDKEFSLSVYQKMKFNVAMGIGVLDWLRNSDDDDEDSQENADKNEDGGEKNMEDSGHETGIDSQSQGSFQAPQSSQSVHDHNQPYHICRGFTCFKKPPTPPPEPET
Sequence of E3 ubiquitin-protein ligase Mdm2 (Q00987 whole entry): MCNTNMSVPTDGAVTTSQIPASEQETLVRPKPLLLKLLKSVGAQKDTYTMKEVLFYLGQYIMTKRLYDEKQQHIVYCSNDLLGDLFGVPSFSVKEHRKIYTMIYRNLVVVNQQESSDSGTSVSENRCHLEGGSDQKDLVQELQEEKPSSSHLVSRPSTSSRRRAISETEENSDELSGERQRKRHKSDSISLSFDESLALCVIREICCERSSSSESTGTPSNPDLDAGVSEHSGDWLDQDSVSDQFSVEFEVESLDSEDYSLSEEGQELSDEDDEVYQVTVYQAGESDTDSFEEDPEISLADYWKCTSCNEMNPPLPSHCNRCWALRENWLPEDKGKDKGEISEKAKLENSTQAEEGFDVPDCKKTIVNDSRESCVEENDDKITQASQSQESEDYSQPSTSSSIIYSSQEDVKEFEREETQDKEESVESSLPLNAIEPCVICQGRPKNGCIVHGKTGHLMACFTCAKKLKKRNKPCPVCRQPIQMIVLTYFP

Usually EC50 stands for the concentration that produces a half-maximal response. Consider `COc1ccccc1NC(=O)c1sc2nc(C)cc(C)c2c1N`, for which the EC50 (in [1]; in assay [2]; at Mu-type opioid receptor) was > 92.5 µM (inactive) each time.
By AC50 is commonly meant the midpoint of the concentration-response curve, whichever way the signal moves. For `COC(=O)c1c(NC(=O)CCN2CCOCC2)sc2c1CCCC2`, the AC50 with Escherichia coli is 85.8 µM (active).
Broadly, the IC50 is the midpoint of a concentration-inhibition curve. As for `CCN1C(=O)C(=C/C=C/c2ccco2)C(=O)N(CC)C1=S`, the AC50 was > 100 µM (inactive) in assay [3] and 1.18 µM (active) in [5]. For the same molecule, the EC50 in assay [4] is 25 µM (not active). At Large T antigen, the IC50 was 45.3 µM (active).
What is called CC50 is the concentration that lowers cell viability or growth by half. On to `O=C1N(c2ccccc2C(F)(F)F)OC1(Cc1ccccc1)c1ccccc1` (centres undefined), for which the cytotoxic concentration (CC50) with Vero was > 25 µM (active).
Turning to `COc1ccc(-c2nnc(Nc3ccc(CC(N)=O)cc3)c3ccccc23)cc1`, the EC50 in assay [6] is > 260 µM (inactive). Further, the AC50 in the assay on Escherichia coli is 23.2 µM (active).
For `Cn1c(=O)c2c(nc(NCc3ccc4c(c3)OCO4)n2Cc2ccccc2)n(C)c1=O`, the results for the IC50 in assay [7] and in assay [8] were 0.696 µM (active) and 0.541 µM (active), respectively.
Turning to `CN(C)C(CNC(=O)CSC(=S)N1CCCC1)c1ccccc1` (centres undefined), the values for the EC50 (in assay [1]; in assay [2]; on Mu-type opioid receptor) were > 92.5 µM (inactive), > 92.5 µM (inactive) and 17.1 µM (inactive), respectively.
As to `CN(C)C(CNC(=O)c1cccc(C(F)(F)F)c1)c1ccco1` (centres undefined), the EC50 was > 92.4 µM (inactive) in assay [1], > 92.4 µM (inactive) in [2], > 92.4 µM (inactive) on Mu-type opioid receptor and 0.376 µM (active) in assay [9].
With `Cc1ccc(Nc2c(-c3ccccn3)nc3ccc(C)cn23)cc1`, the half-inhibitory concentration (IC50) in assay [7] is 1.95 µM (active); in [8] it was 0.539 µM (active). The AC50 in assay [10] was 1.74 µM (active); in assay [12] it was 3.02 µM (active); in [13] it was 5.21 µM (active); with INS1 it was 3 µM (active). Further, the EC50 is 79.5 µM (active) in “cells [11]” and 38.3 µM (active) in the assay “cells [14]”.
On to `Cc1nc(SCc2ccc(C(=O)O)cc2)c2c(C)c(C)sc2n1`, for which the AC50 in the assay on Escherichia coli was 28.5 µM (active).
